Activity calls are given as the source filed them. No cut-off for these calls is given here.
Columns and labels:
[1] = target: Cholinesterase (Homo sapiens, UniProt P06276)
Description: Inhibition of human recombinant butyrylcholinesterase

[2] = target: Acetylcholinesterase (Homo sapiens, UniProt P22303)
Description: Inhibition of human recombinant acetylcholinesterase

[3] = system: SH-SY5Y; experiment: Antioxidant activity in human SHSY5Y cells overexpressing NQO1 assessed as increase in tert-butyl hydroperoxide evoked-intracellular ROS formation at 3 uM after 24 hrs relative to control; format: functional
[4] = system: SH-SY5Y; experiment: Antioxidant activity in human SHSY5Y cells overexpressing NQO1 assessed as increase in tert-butyl hydroperoxide evoked-intracellular ROS formation at 0.1 uM after 24 hrs relative to control; format: functional
[5] = system: SH-SY5Y; experiment: Antioxidant activity in human SHSY5Y cells overexpressing NQO1 assessed as increase in tert-butyl hydroperoxide evoked-intracellular ROS formation at 0.3 uM after 24 hrs relative to control; format: functional
[6] = system: SH-SY5Y; experiment: Antioxidant activity in human SHSY5Y cells overexpressing NQO1 assessed as increase in tert-butyl hydroperoxide evoked-intracellular ROS formation at 1 uM after 24 hrs relative to control; format: functional
[7] = target: NAD(P)H dehydrogenase [quinone] 1 (Homo sapiens) (UniProt P15559); experiment: Activity of NQO1 enzyme
Chain of NAD(P)H dehydrogenase [quinone] 1 (Homo sapiens) (P15559 whole entry): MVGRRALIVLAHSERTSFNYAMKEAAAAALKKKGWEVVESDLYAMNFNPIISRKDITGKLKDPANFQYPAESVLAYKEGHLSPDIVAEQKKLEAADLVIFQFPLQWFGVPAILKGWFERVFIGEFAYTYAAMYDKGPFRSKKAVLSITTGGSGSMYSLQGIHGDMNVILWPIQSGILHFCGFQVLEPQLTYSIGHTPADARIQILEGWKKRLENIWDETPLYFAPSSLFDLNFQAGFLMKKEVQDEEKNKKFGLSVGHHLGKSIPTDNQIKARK

Chain of Cholinesterase (P06276 whole entry): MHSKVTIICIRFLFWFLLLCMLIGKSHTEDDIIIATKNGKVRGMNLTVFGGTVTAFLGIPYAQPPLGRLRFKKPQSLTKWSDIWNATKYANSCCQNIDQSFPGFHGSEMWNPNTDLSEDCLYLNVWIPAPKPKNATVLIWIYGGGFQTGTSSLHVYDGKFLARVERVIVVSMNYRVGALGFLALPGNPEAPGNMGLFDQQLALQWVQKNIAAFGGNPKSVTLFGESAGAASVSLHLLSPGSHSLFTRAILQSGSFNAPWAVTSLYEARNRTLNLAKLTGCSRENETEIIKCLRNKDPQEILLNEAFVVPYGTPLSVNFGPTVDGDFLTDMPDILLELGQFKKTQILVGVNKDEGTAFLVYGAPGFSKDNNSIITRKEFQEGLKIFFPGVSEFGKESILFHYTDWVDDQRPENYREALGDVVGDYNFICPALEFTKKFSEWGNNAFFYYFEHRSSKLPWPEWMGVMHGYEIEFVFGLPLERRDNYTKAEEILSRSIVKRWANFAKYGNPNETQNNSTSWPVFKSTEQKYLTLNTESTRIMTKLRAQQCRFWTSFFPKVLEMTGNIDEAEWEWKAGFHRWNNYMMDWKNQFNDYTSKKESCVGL
Chain of Acetylcholinesterase (P22303 whole entry): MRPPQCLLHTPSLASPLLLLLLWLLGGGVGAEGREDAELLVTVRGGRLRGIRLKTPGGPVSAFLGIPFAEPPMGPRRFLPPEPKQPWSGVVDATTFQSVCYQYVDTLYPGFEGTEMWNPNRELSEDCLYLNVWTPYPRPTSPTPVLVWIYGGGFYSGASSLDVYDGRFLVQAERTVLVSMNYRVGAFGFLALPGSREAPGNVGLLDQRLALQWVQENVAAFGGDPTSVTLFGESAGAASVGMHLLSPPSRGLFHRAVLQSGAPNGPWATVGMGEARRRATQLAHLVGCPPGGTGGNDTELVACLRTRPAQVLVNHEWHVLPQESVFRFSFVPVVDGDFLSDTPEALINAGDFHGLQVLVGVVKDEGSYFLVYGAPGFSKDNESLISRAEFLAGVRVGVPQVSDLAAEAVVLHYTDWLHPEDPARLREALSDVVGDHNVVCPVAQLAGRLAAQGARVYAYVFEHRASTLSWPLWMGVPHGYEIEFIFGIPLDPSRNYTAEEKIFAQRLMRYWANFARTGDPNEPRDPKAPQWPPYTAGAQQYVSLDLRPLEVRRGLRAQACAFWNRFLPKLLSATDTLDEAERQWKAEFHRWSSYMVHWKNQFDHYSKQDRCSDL

Compound: CCN(CCCCCCNC1=CC(=O)C(NCCCCCCN(CC)Cc2ccco2)=CC1=O)Cc1ccco1
- IC50 [1]: 3410 nM

Compound: CCN(Cc1ccccc1OC)C(=O)CCCCCNC1=CC(=O)C(NCCCCCC(=O)N(CC)Cc2ccccc2OC)=CC1=O
- IC50 [2]: 11600 nM
- IC50 [1]: 18500 nM

Compound: CCN(CCCCCCNC1=CC(=O)C(NCCCCCCN(CC)Cc2ccccc2C)=CC1=O)Cc1ccccc1C
- IC50 [2]: 71.9 nM
- IC50 [1]: 2080 nM

Compound: CCN(CCCCCCNC1=CC(=O)C(NCCCCCCN(CC)Cc2ccccc2OC)=CC1=O)Cc1ccccc1OC [MEMOQUIN]
- Activity [3]: 30.5%
- Activity [4]: 53%
- Activity [5]: 49.94%
- Activity [6]: 40.25%

Compound: CCN(CCCCCCNC1=C(c2ccccc2)C(=O)C(NCCCCCCN(CC)Cc2ccccc2OC)=C(c2ccccc2)C1=O)Cc1ccccc1OC
- IC50 [2]: 123 nM
- IC50 [1]: 2250 nM

Compound: CCN(CCCCCCNC1=CC(=O)C(NCCCCCCN(CC)Cc2ccccc2[N+](=O)[O-])=CC1=O)Cc1ccccc1[N+](=O)[O-]
- IC50 [1]: 67100 nM

Compound: CCN(CCCCCCNC1=CC(=O)C(NCCCCCCN(CC)Cc2cccs2)=CC1=O)Cc1cccs1
- IC50 [2]: 60.4 nM
- IC50 [1]: 2790 nM

Compound: CCN(CCCCCCNC1=C(Br)C(=O)C(NCCCCCCN(CC)Cc2ccccc2OC)=C(Br)C1=O)Cc1ccccc1OC
- Activity [3]: 42.12%
- Activity [4]: 50.51%
- Activity [5]: 52.35%
- Activity [6]: 50.43%
- IC50 [1]: 696 nM

Compound: CCN(CCCCCCNC1=CC(=O)C(NCCCCCCN(CC)Cc2cccc(OC)c2)=CC1=O)Cc1cccc(OC)c1
- IC50 [1]: 1690 nM

Compound: COc1ccccc1CN(CCCCCCNC1=CC(=O)C(NCCCCCCN(Cc2ccccc2OC)C(C)C)=CC1=O)C(C)C
- IC50 [2]: 12.9 nM
- IC50 [1]: 660 nM

Compound: CCN(CCCNC1=CC(=O)C(NCCCN(CC)Cc2ccccc2OC)=CC1=O)Cc1ccccc1OC
- IC50 [1]: 9840 nM

Compound: CCN(CCCCNC1=CC(=O)C(NCCCCN(CC)Cc2ccccc2OC)=CC1=O)Cc1ccccc1OC
- IC50 [2]: 13.6 nM
- IC50 [1]: 12800 nM

Compound: CCN(CCCCCCNC1=CC(=O)C(NCCCCCCN(CC)Cc2cccnc2)=CC1=O)Cc1cccnc1
- IC50 [2]: 133 nM
- IC50 [1]: 11900 nM

Compound: CCN(CCCCCCNC1=CC(=O)C(NCCCCCCN(CC)Cc2ccncc2)=CC1=O)Cc1ccncc1
- IC50 [2]: 192 nM
- IC50 [1]: 70100 nM

Compound: CCN(CCCCCCNC1=CC(=O)C(NCCCCCCN(CC)Cc2ccccn2)=CC1=O)Cc1ccccn1
- IC50 [2]: 125 nM
- IC50 [1]: 2470 nM

Compound: CCN(CCCCCCNC1=CC(=O)C(NCCCCCCN(CC)Cc2ccc(OC)cc2)=CC1=O)Cc1ccc(OC)cc1
- IC50 [1]: 2390 nM

Compound: CCN(CCCCCCNC1=C(Cl)C(=O)C(NCCCCCCN(CC)Cc2ccccc2OC)=C(Cl)C1=O)Cc1ccccc1OC
- IC50 [2]: 3.05 nM
- IC50 [1]: 800 nM

Compound: CCN(CCCCCCNC1=CC(=O)C(NCCCCCCN(CC)CCc2ccccc2OC)=CC1=O)CCc1ccccc1OC
- IC50 [2]: 17.3 nM
- IC50 [1]: 518 nM

Compound: CCN(CCCCCCNc1ccc(NCCCCCCN(CC)Cc2ccccc2OC)cc1)Cc1ccccc1OC
- Activity [3]: 49.54%
- Activity [7]: inactive
- Activity [4]: 54.2%
- Activity [5]: 50.45%
- Activity [6]: 51.35%
- IC50 [2]: 42.5 nM
- IC50 [1]: 505 nM

Compound: CCN(CCCCCNC1=CC(=O)C(NCCCCCN(CC)Cc2ccccc2OC)=CC1=O)Cc1ccccc1OC
- IC50 [2]: 2.36 nM
- IC50 [1]: 3460 nM

— ChEMBL document CHEMBL1148814, “Novel class of quinone-bearing polyamines as multi-target-directed ligands to combat Alzheimer's disease” (J Med Chem, 2007)
